According to US6875752B2, “Uridine derivatives as antibiotics” (Aventis Pharma S.A., priority 2001, dated 2005):

Experiments:
Assay in all cases: Method of dilutions in a liquid medium (M.I.C.)
Assay type in all cases: cell-based
E. faecium = E. faecium strains; incubation twenty-four hours at 37° C.; result in words only
Description: (§1) Detail of excipient starch, talc, magnesium stearate. Pharmacological Study of the Products of the Invention Method of Dilutions in a Liquid Medium
(§2) A series of tubes is prepared in which the same quantity of sterile nutritive medium is distributed. Increasing quantities of the product to be studied are distributed into each tube, then each tube is seeded with a bacterial strain. After incubation for twenty-four hours in a heating chamber at 37° C., the growth inhibition is evaluated by transillumination, which allows the minimal inhibitory concentrations (M.I.C.) to be determined, expressed in micrograms/cm^3.

S. aureus = S. aureus strains; incubation twenty-four hours at 37° C.; result in words only
Description: as §1, §2

S. pyogenes = S. pyogenes strains; incubation twenty-four hours at 37° C.; result in words only
Description: as §1, §2

Measured: activity (growth inhibition, minimal inhibitory concentrations M.I.C.)

CCCCCCCCCCCCCCCC(=O)NC[C@@H](O[C@@H]1O[C@H](CN)[C@@H](O)[C@H]1O)[C@@H]1C[C@@H](O)[C@H](n2ccc(=O)[nH]c2=O)O1 [Example 1, 1-[5-O-(5-amino-5-deoxy-β-D-ribofuranosyl)-3,6-dideoxy-6-[(1-oxohexadecyl)amino]-β-D-ribo-hexofuranosyl]-2,4-(1H,3H)-pyrimidinedione]
good activity: all assays above
